Each molecule was assayed on HIV NL4-3 wt (assay: MT4 antiviral assay, NL4-3 strain wild type). Details: Human immunodeficiency virus 1, NL43, MT4, read-out: EC50 NL4-3 wt (nM).
Type: cell-based, HIV-1

Q: `CC(C)C1=C2[C@H]3CC[C@@H]4[C@@]5(C)CC[C@H](OC(=O)CC(C)(C)C(=O)O)C(C)(C)[C@@H]5CC[C@@]4(C)[C@]3(C)CC[C@@]2(CCN(C)Cc2ccc(Cl)cc2)CC1=O` [Example 12, 4-(((3aR,5aR,5bR,7aR,9S,11aR,11bR,13aS)-3a-(2-((4-Chlorobenzyl)(methyl)amino)ethyl)-1-isopropyl-5a,5b,8,8,11a-pentamethyl-2-oxo-3,3a,4,5,5a,5b,6,7,7a,8,9,10,11,11a,11b,12,13,13a-octadecahydro-2H-cyclopenta[a]chrysen-9-yl)oxy)-2,2-dimethyl-4-oxobutanoic acid] was tested. Which EC50 did it give?
A: Its EC50 is 4.5 nM.

Same assay, conditions: Human immunodeficiency virus 1, NL43; MT4 cells; read-out: EC50 NL4-3 wt

Q: For `CC(C)C1=C2[C@H]3CC[C@@H]4[C@@]5(C)CC[C@H](OC(=O)CC(C)(C)C(=O)O)C(C)(C)[C@@H]5CC[C@@]4(C)[C@]3(C)CC[C@@]2(CCN(CCN(C)C)C2(c3ccc(Cl)cc3)CC2)CC1=O` [Example 11, 4-(((3aR,5aR,5bR,7aR,9S,11aR,11bR,13aS)-3a-(2-((1-(4-Chlorophenyl)cyclopropyl)(2-(dimethylamino)ethyl)amino)ethyl)-1-isopropyl-5a,5b,8,8,11a-pentamethyl-2-oxo-3,3a,4,5,5a,5b,6,7,7a,8,9,10,11,11a,11b,12,13,13a-octadecahydro-2H-cyclopenta[a]chrysen-9-yl)oxy)-2,2-dimethyl-4-oxobutanoic acid], which EC50 is on record?
A: Its EC50 is 6.3 nM.

Q: `CC(=O)N(CC[C@@]12CC[C@]3(C)[C@H](CC[C@@H]4[C@@]5(C)CC[C@H](OC(=O)CC(C)(C)C(=O)O)C(C)(C)[C@@H]5CC[C@]43C)C1=C(C(C)C)C(=O)C2)Cc1ccc(Cl)cc1` [Example 13, 4-(((3aR,5aR,5bR,7aR,9S,11aR,11bR,13aS)-3a-(2-(N-(4-Chlorobenzyl)acetamido)ethyl)-1-isopropyl-5a,5b,8,8,11a-pentamethyl-2-oxo-3,3a,4,5,5a,5b,6,7,7a,8,9,10,11,11a,11b,12,13,13a-octadecahydro-2H-cyclopenta[a]chrysen-9-yl)oxy)-2,2-dimethyl-4-oxobutanoic acid] was tested. Which EC50 did it give?
A: Its EC50 is 1.6 nM.

Q: How did the EC50 turn out when `CC(C)C1=C2[C@H]3CC[C@@H]4[C@@]5(C)CC[C@H](OC(=O)CC(C)(C)C(=O)O)C(C)(C)[C@@H]5CC[C@@]4(C)[C@]3(C)CC[C@@]2([C@@H](O)CNCc2ccc(Cl)cc2)CC1=O` [Example 14, 4-(((3aR,5aR,5bR,7aR,9S,11aR,11bR,13aS)-3a-((R)-2-((4-Chlorobenzyl)amino)-1-hydroxyethyl)-1-isopropyl-5a,5b,8,8,11a-pentamethyl-2-oxo-3,3a,4,5,5a,5b,6,7,7a,8,9,10,11,11a,11b,12,13,13a-octadecahydro-2H-cyclopenta[a]chrysen-9-yl)oxy)-2,2-dimethyl-4-oxobutanoic acid] was run?
A: Its EC50 is 2.1 nM.

Q: For `CC(C)C1=C2[C@H]3CC[C@@H]4[C@@]5(C)CC[C@H](OC(=O)CC(C)(C)C(=O)O)C(C)(C)[C@@H]5CC[C@@]4(C)[C@]3(C)CC[C@@]2([C@H](O)CNCc2ccc(Cl)cc2)CC1=O` [Example 15, 4-(((3aR,5aR,5bR,7aR,9S,11aR,11bR,13aS)-3a-((S)-2-((4-Chlorobenzyl)amino)-1-hydroxyethyl)-1-isopropyl-5a,5b,8,8,11a-pentamethyl-2-oxo-3,3a,4,5,5a,5b,6,7,7a,8,9,10,11,11a,11b,12,13,13a-octadecahydro-2H-cyclopenta[a]chrysen-9-yl)oxy)-2,2-dimethyl-4-oxobutanoic acid], which EC50 is on record?
A: Its EC50 is 6.9 nM.

Q: Which EC50 does the source give for `CC(=O)O[C@@H](CNCc1ccc(Cl)cc1)[C@@]12CC[C@]3(C)[C@H](CC[C@@H]4[C@@]5(C)CC[C@H](OC(=O)CC(C)(C)C(=O)O)C(C)(C)[C@@H]5CC[C@]43C)C1=C(C(C)C)C(=O)C2` [Example 16, 4-(((3aR,5aR,5bR,7aR,9S,11aR,11bR,13aS)-3a-((R)-1-Acetoxy-2-((4-chlorobenzyl)amino)ethyl)-1-isopropyl-5a,5b,8,8,11a-pentamethyl-2-oxo-3,3a,4,5,5a,5b,6,7,7a,8,9,10,11,11a,11b,12,13,13a-octadecahydro-2H-cyclopenta[a]chrysen-9-yl)oxy)-2,2-dimethyl-4-oxobutanoic acid] here?
A: Its EC50 is 11 nM.

Q: Which EC50 does the source give for `CC(=O)O[C@H](CNCc1ccc(Cl)cc1)[C@@]12CC[C@]3(C)[C@H](CC[C@@H]4[C@@]5(C)CC[C@H](OC(=O)CC(C)(C)C(=O)O)C(C)(C)[C@@H]5CC[C@]43C)C1=C(C(C)C)C(=O)C2` [Example 17, 4-(((3aR,5aR,5bR,7aR,9S,11aR,11bR,13aS)-3a-((S)-1-Acetoxy-2-((4-chlorobenzyl)amino)ethyl)-1-isopropyl-5a,5b,8,8,11a-pentamethyl-2-oxo-3,3a,4,5,5a,5b,6,7,7a,8,9,10,11,11a,11b,12,13,13a-octadecahydro-2H-cyclopenta[a]chrysen-9-yl)oxy)-2,2-dimethyl-4-oxobutanoic acid] here?
A: Its EC50 is 8.7 nM.

Q: `CC(=O)O[C@H](CN(CCN(C)C)Cc1ccc(Cl)cc1)[C@@]12CC[C@]3(C)[C@H](CC[C@@H]4[C@@]5(C)CC[C@H](OC(=O)CC(C)(C)C(=O)O)C(C)(C)[C@@H]5CC[C@]43C)C1=C(C(C)C)C(=O)C2` [Example 20, 4-(((3aR,5aR,5bR,7aR,9S,11aR,11bR,13aS)-3a-((S)-1-Acetoxy-2-((4-chlorobenzyl)(2-(dimethylamino)ethyl)amino)ethyl)-1-isopropyl-5a,5b,8,8,11a-pentamethyl-2-oxo-3,3a,4,5,5a,5b,6,7,7a,8,9,10,11,11a,11b,12,13,13a-octadecahydro-2H-cyclopenta[a]chrysen-9-yl)oxy)-2,2-dimethyl-4-oxobutanoic acid] was tested. Which EC50 did it give?
A: Its EC50 is 2.3 nM.

Q: How did the EC50 turn out when `CC(=O)O[C@@H](CN(CCN(C)C)Cc1ccc(Cl)cc1)[C@@]12CC[C@]3(C)[C@H](CC[C@@H]4[C@@]5(C)CC[C@H](OC(=O)CC(C)(C)C(=O)O)C(C)(C)[C@@H]5CC[C@]43C)C1=C(C(C)C)C(=O)C2` [Example 21, 4-(((3aR,5aR,5bR,7aR,9S,11aR,11bR,13aS)-3a-((R)-1-Acetoxy-2-((4-chlorobenzyl)(2-(dimethylamino)ethyl)amino)ethyl)-1-isopropyl-5a,5b,8,8,11a-pentamethyl-2-oxo-3,3a,4,5,5a,5b,6,7,7a,8,9,10,11,11a,11b,12,13,13a-octadecahydro-2H-cyclopenta[a]chrysen-9-yl)oxy)-2,2-dimethyl-4-oxobutanoic acid] was run?
A: Its EC50 is 76.5 nM.

Q: With `CC(C)C1=C2[C@H]3CC[C@@H]4[C@@]5(C)CC[C@H](OC(=O)CC(C)(C)CC(=O)O)C(C)(C)[C@@H]5CC[C@@]4(C)[C@]3(C)CC[C@@]2([C@@H](O)CN(CCN(C)C)Cc2ccc(Cl)cc2)CC1=O` [Example 22, 5-(((3aR,5aR,5bR,7aR,9S,11aR,11bR,13aS)-3a-((R)-2-((4-Chlorobenzyl)(2-(dimethylamino)ethyl)amino)-1-hydroxyethyl)-1-isopropyl-5a,5b,8,8,11a-pentamethyl-2-oxo-3,3a,4,5,5a,5b,6,7,7a,8,9,10,11,11a,11b,12,13,13a-octadecahydro-2H-cyclopenta[a]chrysen-9-yl)oxy)-3,3-dimethyl-5-oxopentanoic acid] as the molecule, how does the EC50 read?
A: The EC50 was 3.3 nM.
